For this test, the target named is T1, Prostacyclin Receptors (IP Receptors) of Human Thrombocyte Membranes (Homo sapiens, UniProt P43119).
T1 construct: Thrombocyte membranes are obtained by centrifuging 50 ml of human blood; tissue Maco Pharma, Langen (buffy coats); host or cells: human thrombocyte (platelet) membranes prepared from human blood
As to the kind of experiment: Binding to prostacyclin receptors (IP receptors) of human thrombocyte membranes, 3H-Iloprost displacement. Conditions: 3 nM 3H-Iloprost, 60 min, room temperature. As to the method: B-1. Studies of Binding to Prostacyclin Receptors (IP Receptors) of Human Thrombocyte Membranes
Thrombocyte membranes are obtained by centrifuging 50 ml of human blood (Buffy coats with CDP Stabilizer, from Maco Pharma, Langen) for 20 min at 160×g. Remove the supernatant (platelet-rich plasma, PRP) and then centrifuge again at 2000×g for 10 min at room temperature. Resuspend the sediment in 50 mM tris(hydroxymethyl)aminomethane, which has been adjusted to a pH of 7.4 with 1 N hydrochloric acid, and store at −20° C. overnight. On the next day, centrifuge the suspension at 80 000×g and 4° C. for 30 min. Discard the supernatant. […]
For the binding test, incubate 3 nM ^3H-Iloprost (592 GBq/mmol, from AmershamBioscience) for 60 min with 300-1000 μg/ml of human thrombocyte membranes per charge (max. 0.2 ml) in the presence of the test substances at room temperature. […] After adding Ultima Gold Scintillator, quantify the radioactivity bound to the membranes using a scintillation counter. The nonspecific binding is defined as radioactivity in the presence of 1 μM Iloprost (from Cayman Chemical, Ann Arbor) and is as a rule <25% of the bound total radioactivity. The binding data (IC50 values) are determined using the program GraphPad Prism Version 3.02.

T1 sequence (P43119 whole entry): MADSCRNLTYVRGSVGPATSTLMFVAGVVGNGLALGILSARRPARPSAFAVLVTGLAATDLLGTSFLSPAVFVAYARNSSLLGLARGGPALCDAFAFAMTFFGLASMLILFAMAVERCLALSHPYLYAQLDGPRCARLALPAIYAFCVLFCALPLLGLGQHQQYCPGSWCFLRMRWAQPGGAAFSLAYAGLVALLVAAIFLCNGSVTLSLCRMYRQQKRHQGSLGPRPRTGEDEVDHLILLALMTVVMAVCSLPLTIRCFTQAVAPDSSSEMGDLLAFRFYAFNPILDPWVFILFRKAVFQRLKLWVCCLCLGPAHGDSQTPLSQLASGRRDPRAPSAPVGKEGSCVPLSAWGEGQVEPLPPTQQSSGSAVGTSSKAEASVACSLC

By IC50 is commonly meant the concentration needed to halve the response being measured. Low readings indicate greater potency, high ones weaker potency. For `COc1ccc(-c2c(-c3ccccc3)cn3ncnc(NCCCCCC(=O)O)c23)cc1` [Example 3], the IC50 was 636 nM. That is a sub-micromolar value.
In turn, `COc1ccc(-c2c(-c3ccccc3)cn3ncnc(O[C@H](C)CCCCC(=O)O)c23)cc1` [Example 4, (6R)-6-{[5-(4-methoxyphenyl)-6-phenylpyrrolo[2,1-f][1,2,4]triazin-4-yl]oxy}heptanoic acid] came in with an IC50 of 224 nM.
